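Following 48 hours of exposure in 96-well plates, responses at five concentrations were used to interpolate endpoints linearly. Here, GI50 denotes the concentration required for 50% inhibition of growth. At the TGI there is no net growth.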 Some results are limits rather than exact numbers.

This is an account of results in PubChem BioAssay (NCI).

What all share (experiment): growth of human tumour cells (NCI), 48 h
The subject of assay [1] is HCC-2998 colon.
The subject of assay [2] is KM12 colon.
The test system of assay [3] is MALME-3M melanoma.
For assay [4], the system named is TK-10 renal.
The subject of assay [5] is OVCAR-3 ovarian.
Assay [6] relates to LOX IMVI melanoma.
The subject of assay [7] is A498 renal.
The test system of assay [8] is UACC-62 melanoma.
For assay [9], the system named is UACC-257 melanoma.
The subject of assay [10] is HS 578T breast.

Turning to `COC(=O)C1CCC(Nc2cccc(C(F)(F)F)c2)=N1` (centres undefined), the TGI in assay [1], in [2], in assay [3], in [4], in assay [5] and in assay [6] was over 100 µM throughout. The TGI in assay [7], in assay [8] and in assay [9] was over 100 µM in each case.

`N#CCC(=O)N/N=C1\C(=O)N(c2ccc(Cl)cc2)C(=O)C(=O)C1c1nc2ccccc2o1` (centres undefined): the TGI in [1], in assay [2], in assay [3], in [4], in [5] and in assay [7] was over 100 µM throughout. In addition, the TGI in [8] and in assay [9] was over 100 µM in each case.

Regarding `C=C(CS(=O)(=O)c1ccccc1)[P+](c1ccccc1)(c1ccccc1)c1ccccc1`, the TGI amounted to 47.2 µM in assay [1]; 29 µM in assay [2]; 38.3 µM in assay [3]; 92.4 µM in assay [4]; 37.9 µM in assay [5]; 30 µM in assay [6]. The TGI is over 100 µM in [7], 56.9 µM in assay [8] and 22.2 µM in assay [9].

On to `CC(=O)OC1C(CCl)OC(N=[N+]=[N-])C(OC(C)=O)C1OC(C)=O` (centres undefined), for which the TGI in assay [1], in assay [2], in assay [3], in [4], in [5] and in [7] was over 100 µM in each case. In addition, the TGI in assay [8] and in [9] was over 100 µM throughout.

Consider `C/C(=N/NC(=O)C(N)=O)C(CC(C(=O)Nc1ccccc1C)/C(C)=N\NC(=O)C(N)=O)C(=O)Nc1ccccc1C` (centres undefined), for which the TGI in assay [1], in assay [2], in assay [3], in assay [4], in assay [5] and in [6] was over 100 µM each time. In addition, the TGI in [7] and in [9] was over 100 µM throughout.

Consider `Cc1ccccc1N=Nc1c(O)[nH]c2ccccc12`, for which the TGI in assay [1], in assay [2], in assay [10], in assay [4], in assay [5] and in [6] was over 100 µM each time. The TGI in assay [8] and in [9] was over 100 µM throughout.

For the molecule `COc1cc2cc[n+]3c4cc(OC)c(OC)cc4c(C)cc3c2cc1OC`, the TGI in assay [1], in [2], in [3], in assay [4], in assay [5] and in assay [6] was over 100 µM each time. Also, the TGI in assay [8] and in assay [9] was over 100 µM throughout.

Regarding `N#Cc1cccc(NC(=O)c2oc3ccccc3c2-c2cnn(-c3ccccc3)c2)c1`, the GI50 in [1] was over 500 µM; in [2], over 500 µM; in assay [3], 278 µM; in assay [10] it was 171 µM; in assay [4], 317 µM; in assay [5], over 500 µM. Moreover, the results for the GI50 in assay [6], in assay [8] and in [9] were 308 µM, over 500 µM and over 500 µM, respectively. The TGI in assay [1], in assay [2], in [3], in assay [10], in [4] and in assay [5] was over 500 µM throughout. The TGI in assay [6], in assay [8] and in assay [9] was over 500 µM each time.

`Clc1ccc(OC2CCO2)cc1Cl` (centres undefined): the TGI in [1], in assay [2], in assay [3], in [4], in assay [5] and in [7] was over 100 µM each time. Moreover, the TGI in assay [8] and in assay [9] was over 100 µM in each case.

Regarding `CCN(CC)CCNC(=O)c1cccc2cc3ccccc3nc12`, the TGI in [1] was 25.9 µM; in [2] it was 36.6 µM; in assay [4] it was 31.8 µM; in assay [5] it was 61.5 µM; in assay [6], 19.2 µM; in assay [7] it was 22.2 µM. Further, the TGI in assay [8] is 15.9 µM.

As for `O=c1c2cc(Br)cc(Br)c2[nH]c(=S)n1-c1ccccc1`, the TGI in assay [1], in [2], in assay [3], in assay [4], in assay [5] and in [6] was over 100 µM each time. Also, the TGI in [7], in assay [8] and in [9] was over 100 µM each time.

Take `CN(c1ccccc1)C1C(=O)N(c2ccccc2)C1/C=C/c1ccccc1` (centres undefined): the TGI in [1], in assay [2], in assay [3], in [4], in assay [5] and in assay [7] was over 100 µM throughout. Moreover, the TGI in [8] and in assay [9] was over 100 µM throughout.

Take `N#CC(C#N)=CSc1ccccc1`: the TGI was over 100 µM in [2]; over 100 µM in [4]; over 100 µM in assay [5]; 26 µM in [6]; 82.2 µM in assay [8]; over 100 µM in assay [9].

Turning to `O=C(O)CCC1(Br)CCCCC(Br)C1=O` (centres undefined), the TGI in assay [1], in [3], in assay [4], in assay [5], in assay [7] and in assay [8] was over 100 µM throughout. In assay [9], this molecule returned a TGI of over 100 µM.

`CC1=C([Se]CC(OC(=O)[C@@H](CO)NC(=O)OC(C)(C)C)C(=O)NC(C)(C)C)C(=O)c2ccccc2C1=O` (some centres undefined): the GI50 in [1] was 1.82 µM; in assay [2], 1.5 µM; in [3], 2.04 µM; in assay [4], 1.98 µM; in [5] it was 1.8 µM; in assay [6] it was 1.6 µM. The results for the GI50 in assay [7], in assay [8] and in assay [9] were 3.64 µM, 1.66 µM and 1.74 µM, respectively. In addition, the TGI is 3.23 µM in assay [1]; 2.89 µM in [2]; 3.77 µM in assay [3]; 3.44 µM in assay [4]; 3.19 µM in [5]; 3.02 µM in [6]. Also, the TGI is 15.2 µM in assay [7], 3.05 µM in assay [8] and 3.23 µM in assay [9].
